Consider two sequences from patent publication US20090142363A1, “CYTOTOXIC T-CELL EPITOPE PEPTIDE AND USE THEREOF” (priority 2005, published 2009).

No end group written: not given here.

For this assay, the system named is peripheral blood / PBMCs / peptide-induced CTL lines of HLA-A*24 donors. Briefly: Staining of peripheral blood, PBMCs or peptide-induced CTL lines with MHC-tetramer reagents. The format is cell-based, human. Further details: positive rate: CD8-positive, MHC-tetramer reagent-positive cells to viable cells: concentration or dose not given beside the values. The note with it: for MHC-tetramer reagent-positive cells (UL and UR) in IFNγ / tetramer plot, almost none producing IFNγ: HIV peptide added, TYF: donor ID*24-8, VYS: donor ID*24-2; for increase of the positive rate from day 0 to day 10: donor ID*24-8, ten days of culture with the peptide; for amount of specific CTLs (CD8 / MHC-tetramer reagent-positive): TYF: donor ID*24-8, 10 days stimulation, VYS: donor ID*24-2, 27 days. As to the method:
MBL Co. where the present inventors are affiliated with has acquired exclusive patent licensing rights in Japan for MHC-tetramer reagents (U.S. Pat. No. 5,635,363; French Application No. FR9911133; and U.S. Pat. Nos. 5,723,584, 5,874,239, 5,932,433, and 6,265,552) from Beckman Coulter Co. Based on the patents, PE-labeled MHC-tetramer reagents were prepared using adenovirus-specific CTL epitope peptides and HLA-A*2402 molecules.
Adenovirus-specific CTLs quantification was carried out using MHC-tetramer reagents that was prepared using CTL epitope peptides of the present invention, with peripheral blood, PBMCs isolated from peripheral blood, CTL lines induced using CTL epitope peptides as samples. Examples of quantification using PE-labeled MHC-tetramer reagents are described below. Labelling dyes may be used in an appropriate combination depending on the type of flow cytometer to be used, and is not limited to the examples described below.
Ten μl of a PE-labeled MHC-tetramer reagent, 20 μl of an FITC-labeled antibody for T cell (for example, CD8, CD4, or CD3), and such were added to 200 μl of collected peripheral blood. A CD45 antibody labeled with PC5 or such may also be added to eliminate nonspecific fluorescence due to contaminated erythrocytes. After gentle mixing, the mixture was allowed to stand at room temperature for 30 minutes. OptiLyse B was added, and erythrolysis and fixation was carried out according to the manufacturer's protocol. Two ml of PBS was added, stirred, and the cells were centrifuged at 400×g for 5 minutes. After the supernatant was removed by aspiration, the cells were resuspended in 500 μl of PBS and analyzed using a flow cytometer within 24 hours.
Ten μl of a PE-labeled MHC-tetramer reagent, 20 μl of an FITC-labeled T cell surface antibody (for example, CD8, CD4, or CD3), and such were added to an appropriate amount of PBMCs (10^5 to 10^6 cells) or a CTL line induced by use of CTL epitope peptides. A CD45 antibody labeled with PC5 or such may also be added to eliminate nonspecific fluorescence due to contaminated erythrocytes. After gentle mixing, the cells were allowed to stand at room temperature for 30 minutes. Three ml of PBS was added, stirred, and the cells were centrifuged at 400×g for 5 minutes. After the supernatant was removed by aspiration, the cells were resuspended in 500 μl of PBS. When a CTL line is used, 7-AAD Viability Dye (Non-viable cell detection reagent; MBL Co.) may be added to eliminate nonspecific fluorescence caused by non-viable cells. The cells were analyzed using a flow cytometer within 24 hours.
The results of staining obtained using the five types of MHC-tetramer reagents used to prepare the peptide-induced CTL lines are shown in FIG. 5.

Setting [1] is: donor ID*24-8, PBMCs cultured with the epitope peptide for 10 days (day 10).
[2] abbreviates: donor ID*24-8, immediately after blood collection (day 0).
Setting [3] is: restimulation with the specific peptide.

Take TYFNLGNKF [TYF]: the “MHC-tetramer reagent-positive cells (UL and UR) in IFNγ / tetramer plot, almost none producing IFNγ” value is given as 1.76%; the “increase of the positive rate from day 0 to day 10” value was found to be 153 times. Moreover, under setting [1], the “positive rate: CD8-positive, MHC-tetramer reagent-positive cells to viable cells” value (shortened to “positive rate: CD8-positive”) amounted to 1.53%. Further, the “positive rate: CD8-positive” value under setting [2] was 0.01%. For the same sequence, the “amount of specific CTLs (CD8 / MHC-tetramer reagent-positive)” value (restimulation with HIV peptide) amounted to 1.67%. Further, the “amount of specific CTLs (CD8 / MHC-tetramer reagent-positive)” value under setting [3] was determined as 0.80%.

Regarding VYSGSIPYL, the “MHC-tetramer reagent-positive cells (UL and UR) in IFNγ / tetramer plot, almost none producing IFNγ” value turned out to be 8.24%; the “increase of the positive rate from day 0 to day 10” value was found to be 15 times. For the same sequence, under setting [1], the “positive rate: CD8-positive” value came to 0.15%. Moreover, under setting [2], the “positive rate: CD8-positive” value was 0.01%. Moreover, the “amount of specific CTLs (CD8 / MHC-tetramer reagent-positive)” value (restimulation with HIV peptide) is given as 8.33%. The “amount of specific CTLs (CD8 / MHC-tetramer reagent-positive)” value under setting [3] came out at 5.07%.
